A word on the melting point: it is the temperature, or range, at which the solid turns liquid.

A value given as a limit tells only on which side of the number the result lay.

In turn, `CCOC(=O)C1=C(C(C)C)Nc2n[nH]cc2C1c1ccccc1[N+](=O)[O-]` (stereo not drawn) showed a melting point of 205 to 206 °C.

Take `Cc1cc(O)c(C23CC4CC(CC(C4)C2)C3)cc1Br`: the melting point lay in the range of 155 to 156 °C.

`CCc1cc(=O)c(C(=O)c2ccccc2)c(C)[nH]1` had a melting point of 169 to 170 °C.

For the molecule `CCCCc1nn(-c2ccc(C(F)(F)F)cn2)cc1CCCOc1cc(CC(=O)O)ccc1OCC`, the melting point lay within 105 to 106 °C.

In turn, `NC(=S)c1ncn2c1[C@@H]1CCN1C(=O)c1c(Cl)cccc1-2` registered a melting point of 250 to 253 °C.

Molecule `CCSc1cc(SCC)c2ccc3c(SCC)cc(SCC)c4ccc1c2c43` had a melting point of 180 °C.

The molecule `CCCC(=O)c1nc(CCC)[nH]c1C` came in with a melting point of 94 to 95 °C.

For `CCCOc1nc2ccc(I)cc2c(=O)n1CCC`, the melting point fell in the range of 49 to 53 °C.

Consider `CCCCC(=O)N(Cc1ccc(-c2ccccc2S(=O)(=O)N=CN(C)C)cc1)C(C#N)C(=O)OCC` (stereo not drawn), for which the melting point fell in the range of 130 to 132 °C.

`c1cncc(OCCCn2cc(-c3cc4nccnc4[nH]3)c3ccccc32)c1`: the melting point was in the range of 208 to 209 °C.

`CCc1noc(-c2cn(-c3cccc(Oc4ccc(Cl)cc4)c3)cn2)n1` showed a melting point of 120 to 122 °C.

For the molecule `COc1cccc2c1-c1c(ccn1CCNC(C)=O)CC2`, the melting point lay within 132 to 133 °C.

Turning to `CCOC(=O)c1conc1-c1ccc(F)c(Cl)c1`, the melting point lay within 108 to 109 °C.

The molecule `Cc1oncc1C(=O)Nc1ccc(N)cc1` returned a melting point of 123 to 128 °C.

Consider `C=CCSc1nc2cc(C)c(C)cc2[nH]1`, for which the melting point is 119 to 120 °C.

The molecule `COCn1c(C)nc2nc(O)cnc2c1=O` showed a melting point of 224 to 226 °C.

In the case of `Oc1c(C(Nc2ccc(F)cn2)c2ccccn2)ccc2cccnc12` (stereo not drawn), the melting point was in the range of 165 to 168 °C.

Consider `CCN1c2ncccc2C(=O)Nc2c(C)cc(N3CCCC(CO)C3)nc21` (stereo not drawn), for which the melting point fell in the range of 194 to 197 °C.

In turn, `O=C(NCc1ccc(Cl)cc1)c1cn(-c2ccccc2)c2oc(CCl)cc2c1=O` registered a melting point of 207 to 209 °C.

With `CCOP(=O)(OCC)SCS(=O)C(C)(C)C` (stereo not drawn), the melting point fell in the range of 34.5 to 36 °C.

As for `COc1ccc(Cl)cc1C(=O)NCCc1ccc(C=CC(=O)O)cc1`, the melting point was 197 to 198 °C.

With `Cc1oc(-c2ccccc2)nc1CCOc1ccc(CCl)cc1`, the melting point fell in the range of 88 to 90 °C.

`Nc1ccc2c(c1)c(CC(=O)O)cc(=O)n2Cc1ccc(Cl)cc1` displayed a melting point of 196 to 199 °C.

Molecule `Cc1cccc(Cl)c1N1Cc2cnc(Nc3ccccc3)nc2N(c2cccc(CCN)c2)C1=O` yielded a melting point of 192 °C.

`CC(C)N(Cc1ccccc1)c1ncnc2nc[nH]c12` had a melting point of 200 to 202 °C.

On to `CCOC(=O)C(C#N)c1ncccc1N` (stereo not drawn), for which the melting point was 118 to 119 °C.

On to `CC1=CCCC2C1(C)CCC(C)C2(C)Cc1cc(O)ccc1O` (stereo not drawn), for which the melting point fell in the range of 146 to 148 °C.

For the molecule `N=C(NN=Cc1ccc(OC(F)C(F)(F)F)cc1)NN=Cc1ccc(OC(F)C(F)(F)F)cc1` (stereo not drawn), the melting point lay within 125 to 130 °C.

Regarding `Nc1sc2c(c1C(=O)c1ccc(F)cc1)CCN(C(=O)OCc1ccccc1)C2`, the melting point was in the range of 90 to 92 °C.

`CCC/C(=C\C=C\C(=O)Oc1ccc([N+](=O)[O-])cc1)c1ccc(OC)cc1` returned a melting point of 90 to 92 °C.

With `CCn1c(N)c(C(N)=O)c(=O)c2ccc(-c3ccncc3)cc21`, the melting point is over 300 °C.

`O[C@@H]1C=C[C@H](n2cnc3c(NCC(c4ccccc4)c4ccccc4)ncnc32)C1` (racemic): the melting point is 165 to 169 °C.

Consider `Cc1c(C)c2c(c(C)c1NC(=O)CC(C)(C)C)C(c1ccccc1)C(C)(C)O2` (stereo not drawn), for which the melting point was 214 to 215 °C.

Regarding `CCc1cccc(CC(=O)O)c1OCCCn1cc(C(=O)NCc2ccc(C(F)(F)F)cc2)c(OC(C)C)n1`, the melting point is 108 °C.

Turning to `CC(C)(C)OC(=O)C(CCC(N)=O)N1Cc2c(OCc3ccc(CN4C5CCC4COC5)cc3)cccc2C1=O` (stereo not drawn), the melting point was 243 to 245 °C.

As to `COc1cc2c(cc1C(F)(F)F)N(C(=O)Nc1csc(-c3cnccn3)n1)CC2`, the melting point is over 240 °C.

`CCCCOc1ccc(CO)c(Oc2ncc(C(F)(F)F)cc2Cl)c1` displayed a melting point of 77.8 to 79.2 °C.

`CC12CCC3c4ccc(C(=O)O)cc4CCC3C1CCC2C(=O)c1ccc2c(c1)OCO2` (stereo not drawn) displayed a melting point of 235 to 237 °C.

In turn, `O=C(Nc1ccc2c(c1)C(=O)CCCC2)OCc1ccccc1` displayed a melting point of 120 to 121 °C.

Consider `C1=c2cc3c(cc2Sc2ccccc21)=Cc1ccccc1S3`, for which the melting point is 276 to 280 °C.

Consider `Cc1noc(NS(=O)(=O)c2ccccc2-c2ccc(-c3ncco3)cc2CC#N)c1C`, for which the melting point lay in the range of 103 to 110 °C.

Molecule `COc1ccc2nn(C=Cc3ccc(-c4ccccc4)cc3)nc2c1` came in with a melting point of 165 to 175 °C.

For the molecule `CCn1c(=O)c2c(nc(/C=C/c3ccc(OC(C)=O)c(OC)c3)n2C)n(CC)c1=O`, the melting point lay in the range of 194 to 195 °C.

Take `COCCOc1ccc(/C=C/COC(=O)NS(=O)(=O)NCCN2CCCC2)c(Oc2ncc(C(F)(F)F)cc2Cl)c1`: the melting point is 154 to 156 °C.

As to `Cc1sc(-c2ccccc2)nc1COc1ccc(Cn2cc(CCC(=O)O)c(-c3ccccc3)c2)cc1`, the melting point was 157 to 158 °C.

In turn, `CC(=O)Oc1cc(OC(C)=O)cc(C(=O)CBr)c1` came in with a melting point of 61 to 62 °C.

Consider `CS(=O)(=O)OCCCCCCNC(=O)CNC(=O)OCc1ccccc1`, for which the melting point lay within 82 to 83 °C.

The molecule `CCC1Oc2cccc3nc4c(c(c23)NC1=O)CCCC4` (stereo not drawn) showed a melting point of 182 to 183 °C.

In turn, `OC(CCc1cccnc1)COc1ccc2ccccc2c1` (stereo not drawn) returned a melting point of 93 to 95 °C.

As for `Nc1ccc(F)c(C(=O)NCC(=O)O)c1`, the melting point lay within 252 to 254 °C.

On to `COc1ccc(C2(CF)CCC(=O)CC2)cc1OC1CCCC1`, for which the melting point is 72 to 74 °C.

`CCNc1nc(SC)nc(SC)c1[N+](=O)[O-]` displayed a melting point of 149 to 150 °C.

`COC(=O)c1cc(-c2ccccc2Cl)c(=O)n2ncc3ccc(Cl)cc3c12`: the melting point was 200 to 202 °C.

For the molecule `CCn1ncc(NCC(O)CO)c(Cl)c1=O` (stereo not drawn), the melting point was 120 to 124 °C.

On to `CC(C)(Nc1cccc(C(=N)N)c1)C(=O)Nc1ccc(-c2ccccc2S(N)(=O)=O)cc1`, for which the melting point turned out to be 197 °C.

The molecule `Cc1nn(C)c2c(=O)n(C)c(=O)n(C)c12` yielded a melting point of 210 to 211 °C.

As for `COC1N=C(c2ccccc2Cl)c2cc(Cl)ccc2-c2cn(C)cc21` (stereo not drawn), the melting point is 128 to 130 °C.

`FC(F)(F)c1cc(-c2ccc(Cl)cc2)nc2c(I)cnn12` had a melting point of 155 °C.

The molecule `O=C(C=Cc1ccccc1O)C=Cc1ccccc1O` showed a melting point of 155 °C.

The molecule `COC(=O)c1cccn1-c1cc2[nH]c(=O)c(=O)n(C3CCCCC3)c2cc1[N+](=O)[O-]` gave a melting point of 211 to 212 °C.

With `Cc1oc(-c2ccccc2)nc1COc1ccc(CC2SC(=N)NC2=O)cc1` (stereo not drawn), the melting point was 257 to 258 °C.

`CC(c1ccc(C#N)nc1)C(O)(Cn1cncn1)c1ccc(F)cc1F` (stereo not drawn) had a melting point of 136 to 141 °C.

In turn, `Cc1oc(-c2ccccc2)nc1COc1ccc(Cn2cc(CC(=O)O)c(-c3cccs3)n2)cc1` came in with a melting point of 98 to 99 °C.

On to `CCN(CC)C(=O)Nc1ccc(S(=O)(=O)n2c(=O)n(C3CCCCC3)c3cc(Cl)ccc32)c(OC)c1`, for which the melting point is 250 °C.

In turn, `CCCCc1ncc(/C=C(\Cc2ccc([N+](=O)[O-])cc2)C(=O)O)n1Cc1ccccc1Cl` yielded a melting point of 207 to 208 °C.

In turn, `CCC1=C(C(=O)OC)C(c2ccc(F)cc2Cl)N=C(c2cscn2)N1` (stereo not drawn) gave a melting point of 144 to 147 °C.

With `COc1ccc(C(c2ccccc2)(c2ccc(OC)cc2)C(F)(F)F)cc1`, the melting point is 120 to 121 °C.

The molecule `OCc1n[nH]c(-c2ccc(CN3CCCCCC3)s2)n1` gave a melting point of 159 to 161 °C.

As for `OCC1OC(n2cnc3c(NCc4cccc(O)c4)ncnc32)C(O)C1O` (stereo not drawn), the melting point amounted to 196 °C.

The molecule `COc1cc(C2CCN(C[C@H](O)C(F)(F)F)CC2)ccc1Nc1ncc2ccc(-c3ccccc3OC)n2n1` gave a melting point of 77 to 94 °C.

Consider `N#Cc1ccc(C(=O)NC(=S)NC2CCCCC2)cc1`, for which the melting point was in the range of 136 to 137 °C.

On to `OCCCC#CC#Cc1ccccc1`, for which the melting point fell in the range of 50.9 to 51.6 °C.

`CS(=O)(=O)c1ccc(-c2cc(F)c(F)cc2Br)cc1` showed a melting point of 158 to 160 °C.

On to `N#CCc1c[nH]c2ccc(NC(=O)Nc3ccccc3)cc12`, for which the melting point was 217 to 219 °C.

`CC(C)(C)CC(=O)c1c(-c2ccc3c(Br)c(OCC(=O)O)ccc3c2)sc2ccccc12` registered a melting point of 206 to 207 °C.

`CCS(=O)(=O)Nc1ccc(-c2cccc(-c3nc(C(C)C)[nH]c3-c3cccc(C)n3)c2)cc1` had a melting point of 123 to 135 °C.

In turn, `COC(=O)Cc1cc(OC)c(OC)cc1[N+](=O)[O-]` displayed a melting point of 110 to 111 °C.

Molecule `CC(C)(C)OC(=O)NCC1CCc2cc(C=O)ccc2C1` (stereo not drawn) came in with a melting point of 115 °C.

Molecule `Cc1[nH]c(C(=O)N2CCC(O)CC2)c(C)c1-c1nc2ccc(C(=O)c3ccccc3)cc2[nH]1` gave a melting point of 288 to 290 °C.

The molecule `Cc1sc(Nc2cc(F)ccn2)nc1-c1cn[nH]c1` came in with a melting point of 283 °C.

For the molecule `N#Cc1nn(-c2c(Cl)cc(C(F)(F)F)cc2Cl)c(N2CCCC2)c1S(=O)(=O)C(F)(F)F`, the melting point lay in the range of 187 to 189 °C.

Regarding `Cc1nn(CC(F)CO)c(-c2ccc(F)cc2)c1-c1ccc2c(c1)NC(=O)CO2` (stereo not drawn), the melting point lay within 193 to 196 °C.

With `CCCCCCCCCCCCCCOc1ccc(C(=O)OC)cc1C(C)(C)C`, the melting point fell in the range of 44 to 45 °C.

With `OCCC(c1ccccc1)C(O)(c1ccccc1)c1ccc(OCc2ccccc2)cc1` (stereo not drawn), the melting point is 109 to 115 °C.

The molecule `O=C1c2cc(NCCO)ccc2OC12CC2` came in with a melting point of 74 to 75 °C.

Molecule `CCN1C(=O)C(C)(C)C(=O)N(C)c2cc(CN(CCn3ccc4sccc4c3=O)Cc3cnccc3C)ccc21` showed a melting point of 145 to 147 °C.

On to `CC(N)Cc1ccc(C(N)=O)s1` (racemic), for which the melting point fell in the range of 91 to 92 °C.

`CN1C(=O)C(NC(=O)Nc2ccccc2Cl)N=C(c2ccccc2)c2ccccc21` (stereo not drawn) had a melting point of 212 to 214 °C.

The values above are taken from a melting point compilation (Tetko et al.; mined from patent text by program, amines drawn as free bases though some values may be those of a salt).
